How the values were obtained:
TrkB [1] = target: T1, TrkB (Homo sapiens, UniProt Q16620); conditions: read-out: Kd (agonist of TrkB); cited from earlier work
[2] = in vivo, cited from earlier work
TrkB [3] = target: T1, TrkB; conditions: read-out: IC50 for inhibition of BDNF binding to TrkB; cited from earlier work
TrkB [4] = target: T1, TrkB; conditions: cited from earlier work
[5] = test system: P-TRKA Tyr674/675, P-TRKB Tyr706/707; assay: Western blot of phosphorylated TRK in HepG2 cell lysates; type: cell-based, human; conditions: HepG2, Loxo-195 added to NTF3
Procedure: Human HepG2 and mouse AML12 cells were grown in 6-well plates. […] Lyophilized NTF3 was solubilized with sterile filtered PBS supplemented with 0.1% BSA, aliquoted and stored at −80° C. until use. […] Cell lysates were sonicated and centrifuged for 10 min at 18,800×g. Protein concentration of supernatants were determined by Direct Detect Spectrophotometer (MilliporeSigma, Burlington, MA).
(§1) For immunoblot analysis, 30-50 μg of protein diluted in LSD sample buffer (Invitrogen, Waltham, MA) were analyzed per SDS-PAGE (NuPAGE™, Invitrogen, Waltham, MA) using MOPS buffer or MES buffer (Invitrogen, Waltham, MA). Gels were stained with Coomassie (Bio-Safe Coomassie G-250 Stain, Bio-Rad, Hercules, CA) and transferred onto PVDF membranes using semi-dry blotting (Trans-Blot SD, Bio-Rad, Hercules, CA). Images were visualized on an Amersham™ Imager 680 (Cytiva, Marlborough, MA).

AML12 cells = assay: Cell proliferation assay (CellTiter-Glo) in AML12 cells; type: cell-based, mouse; conditions: Loxo-195 final concentration 5 nM, AML12
Procedure: (§2) Cell lines. Human HepG2 (ATCC HB-8065) were maintained in MEM media with 10% FBS and the mouse hepatocyte cell line AML12 (ATCC, Manassas, VA; CRL-2254) in DMEM/F12 media supplemented with dexamethasone (40 ng/ml) and Insulin-Transferrin-Selenium (Gibco, Waltham, MA; 41400045), containing 10% FBS and 1% penicillin and streptomycin. JS1 (RRID: CVCL_C7PL), LX2 (RRID: CVCL_5792, MilliporeSigma, Burlington, MA; SCC064) and TWNT4 (RRID: CVCL_W296) cells were cultured in DMEM supplemented with 10% FBS. 293T cells (ATCC, Manassas, VA; CRL-3216) were cultured in DMEM supplemented with 10% FBS.
(§3) Cell proliferation assays. Primary mouse hepatocytes, HepG2 or AML 12 cells were grown in opaque-walled 96-well plates. NTF3 (final concentration 20 ng/ml) (STEMCELL Technologies, Vancouver, Canada; cat. 78074) and/or Loxo-195 (final concentration 5 nM) (Selleckchem, Houston, TX; S8636) were added into complete growth media without L-glutamine. Primary mouse hepatocytes were also grown in serum-free William's E media without supplements. Cells were analyzed by CellTiter-Glo® (Promega G7570, Madison, WI) which detects the number of viable cells on day 0 to day 5 by on detection systems GloMax® (Promega) or Bioteck Synergy H1 (Agilent, Santa Clara, CA). Mouse recombinant HGF (Abcam, Cambridge, UK; ab281797) was added to cell culture media at a final concentration 5 ng/ml. […]

HepG2 cells = assay: Cell proliferation assay (CellTiter-Glo) in HepG2 cells; type: cell-based, human; conditions: Loxo-195 final concentration 5 nM, HepG2
Procedure: as §2, §3

CCND1 = assay: Western blot of CCND1 in HepG2 cell lysates; type: cell-based, human; conditions: HepG2, Loxo-195 5-10 nM added to NTF3
Procedure: Human HepG2 and mouse AML12 cells were grown in 6-well plates. Cells were treated with NTF3 (20 ng/ml) purchased from STEMCELL technologies, Vancouver, Canada (cat. 78074), R&D Systems, Minneapolis, MN (267-N3), Gibco, Waltham, MA (PHC7036) and/or Loxo-195 (5-10 nM) (Selleckchem, Houston, TX; S8636) in complete growth media without L-glutamine for 2 hours. Lyophilized NTF3 was solubilized with sterile filtered PBS supplemented with 0.1% BSA, aliquoted and stored at −80° C. until use. […] HepG2 and AML12 cells were collected on ice in PBS, centrifuged for 10 sec […] cell pellet homogenized in RIPA buffer containing inhibitors (Roche, Basel, Switzerland; complete Mini proteinase inhibitor, 1×HALT phosphatase inhibitors, Thermo Scientific, Waltham, MA; cat. 78428). Cell lysates were sonicated and centrifuged for 10 min at 18,800×g. Protein concentration of supernatants were determined by Direct Detect Spectrophotometer (MilliporeSigma, Burlington, MA).
as §1, with “Marlborough, MA). Semi-quantitative band densitometry was performed using ImageJ software (version 1.53).” for “Marlborough, MA).”

CCND1 and PCNA [6] = assay: Immunoblotting of mpPHH for CCND1 and PCNA; type: cell-based, human; conditions: mpPHHs, co-incubation with torin2
Procedure: (§4) Mouse passaged primary human hepatocytes. Mouse-passaged primary human hepatocytes (mpPHHs) were collected as previously described (Michailidis et al., Proc Natl Acad Sci USA. 2020; 117(3): 1678-1688) and cultured in hepatocyte culture media (CC-3198, Lonza, Basel, Switzerland) in collagen-coated chamber slides. Three days before treatment, mpPHH were incubated in William's E media (with L-glutamine). […] 5-15 images per treatment per experiment were randomly taken and EdU positive nuclei quantified.
(§5) Immunoblotting. […] Protein concentration of supernatants was determined by Direct Detect Spectrophotometer (MilliporeSigma, Burlington, MA). […] The protein concentration of supernatants was determined by a Direct Detect® spectrophotometer (MilliporeSigma, Burlington, MA). For immunoblot analysis, 10 to 50 μg of protein diluted in […] sample buffer (Invitrogen, Waltham, MA) were analyzed per SDS-polyacrylamide gel electrophoresis (NuPAGE™, Invitrogen, Waltham, MA) using Mops buffer or MES buffer (Invitrogen, Waltham, MA). […] Semi-quantitative band densitometry was performed using ImageJ software (version 1.53).

CCND1 and PCNA [7] = assay: Immunoblotting of HDOs for CCND1 and PCNA; type: cell-based, human; conditions: co-incubation with torin2
Procedure: Human ductal organoids. The normal human liver tissue was obtained through the Cooperative Human Tissue Network (CHTN) at Vanderbilt University Medical Center. The liver was cut into very small pieces in liver digestion medium (Gibco, Waltham, MA; 17703-034). The cell suspension was filtered through a 100-μm cell strainer. The flow through was then centrifuged for 2 min at 100 g, 4° C., and the cell pellet resuspended in ice-cold DMEM (Gibco, Waltham, MA; 11885-084, supplemented by 5% FBS) and centrifuged for 2 min at 300 g. The cell pellet was gently resuspended in Matrigel® (Corning, Corning, NY; 356231) and a […] dome plated in a 24-well plate. The plate was incubated for 10-15 min at 37° C. […]
as §5

mTOR = assay: Immunoblotting of mpPHH for P-S6RP and P-P70S6K (mTOR activation); type: cell-based, human; conditions: co-incubation with Torin2
Procedure: as §4, §5

mTORC1 = assay: Immunoblotting of HDOs for P-S6RP and P-P70S6K (mTORC1 activation); type: cell-based, human
Procedure: Human ductal organoids. The normal human liver tissue was obtained through the Cooperative Human Tissue Network (CHTN) at Vanderbilt University Medical Center. The liver was cut into very small pieces in liver digestion medium (Gibco, Waltham, MA; 17703-034). The cell suspension was filtered through a 100-μm cell strainer. The flow through was then centrifuged for 2 min at 100 g, 4° C., and the cell pellet resuspended in ice-cold DMEM (Gibco, Waltham, MA; 11885-084, supplemented by 5% FBS) and centrifuged for 2 min at 300 g. The cell pellet was gently resuspended in Matrigel® (Corning, Corning, NY; 356231) and a […] dome plated in a 24-well plate. The plate was incubated for 10-15 min at 37° C. After solidifying, complete HepatiCult™ Organoid Initiation Medium (OIM) (STEMCELL Technologies, Vancouver, Canada; 100-0384) was added. For passaging, the Matrigel dome was dissociated using TrypLE (Thermo Fisher Scientific, Waltham, MA; 12604013) and incubated at 37° C. for 5 mins. Organoids were washed by resuspending in advanced DMEM/F12 and consecutive resuspension of the organoid pellet. Organoids were resuspended at a 1:10 dilution in Matrigel® and cultured in complete HepatiCult™ Organoid Growth Medium (OGM) (STEMCELL Technologies, Vancouver, Canada; 100-0385) for organoid expansion. For hepatocytic differentiation of hepatic ductal organoids, culture medium was changed to complete HepatiCult™ Organoid Differentiation Medium (ODM) (STEMCELL Technologies, 100-0383) 4 days after passaging. Vehicle, NTF3, BDNF, HGF (20 ng/ml final concentration) or Taletrectinib (Fisher Scientific, Waltham, MA; 502030245, final concentration 10 nM) or torin2 (Fisher Scientific, Waltham, MA; s2817, final concentration 25 nM) were diluted in William's E (without L-glutamine) and added to organoids.
Immunoblotting. HDOs and mpPHH were homogenized in RIPA buffer containing proteinase inhibitors (Roche, Basel, Switzerland; cOmplete™ Mini protease inhibitor, 2 tab/10 ml buffer) and 1×HALT phosphatase inhibitors (Thermo Fisher Scientific, Waltham, MA; catalog no. 78428). Lysates were sonicated and then centrifuged for 10 min at 18,800 g. Protein concentration of supernatants was determined by Direct Detect Spectrophotometer (MilliporeSigma, Burlington, MA). HDOs were treated with growth factors as described above. Lyophilized NTF3 was solubilized with sterile-filtered PBS supplemented with 0.1% BSA, aliquoted, and stored at −80° C. until use. […] HDOs and mpPHH were collected on ice in PBS and centrifuged for 10 s, and the cell pellet was homogenized in RIPA buffer containing inhibitors (Roche, Basel, Switzerland; cOmplete™ Mini protease inhibitor, 1×HALT phosphatase inhibitors, Thermo Fisher Scientific, Waltham, MA; catalog no. 78428). Cell lysates were sonicated and centrifuged for 10 min at 18,800 g. The protein concentration of supernatants was determined by a Direct Detect® spectrophotometer (MilliporeSigma, Burlington, MA). For immunoblot analysis, 10 to 50 μg of protein diluted in […] sample buffer (Invitrogen, Waltham, MA) were analyzed per SDS-polyacrylamide gel electrophoresis (NuPAGE™, Invitrogen, Waltham, MA) using Mops buffer or MES buffer (Invitrogen, Waltham, MA). […] Semi-quantitative band densitometry was performed using ImageJ software (version 1.53).

proliferating HSCs = conditions: Gfap-Tk mice, carbon tetrachloride and allyl alcohol for 10 days, co-administration of ganciclovir; cited from earlier work
[8] = target: TRKB (tropomyosin receptor kinase B, encoded by Ntrk2) on primary mouse hepatocytes (mouse) (UniProt P15209); assay: cell-based or functional assay
Sequence of TRKB (tropomyosin receptor kinase B, encoded by Ntrk2) on primary mouse hepatocytes (mouse) (P15209 32-821): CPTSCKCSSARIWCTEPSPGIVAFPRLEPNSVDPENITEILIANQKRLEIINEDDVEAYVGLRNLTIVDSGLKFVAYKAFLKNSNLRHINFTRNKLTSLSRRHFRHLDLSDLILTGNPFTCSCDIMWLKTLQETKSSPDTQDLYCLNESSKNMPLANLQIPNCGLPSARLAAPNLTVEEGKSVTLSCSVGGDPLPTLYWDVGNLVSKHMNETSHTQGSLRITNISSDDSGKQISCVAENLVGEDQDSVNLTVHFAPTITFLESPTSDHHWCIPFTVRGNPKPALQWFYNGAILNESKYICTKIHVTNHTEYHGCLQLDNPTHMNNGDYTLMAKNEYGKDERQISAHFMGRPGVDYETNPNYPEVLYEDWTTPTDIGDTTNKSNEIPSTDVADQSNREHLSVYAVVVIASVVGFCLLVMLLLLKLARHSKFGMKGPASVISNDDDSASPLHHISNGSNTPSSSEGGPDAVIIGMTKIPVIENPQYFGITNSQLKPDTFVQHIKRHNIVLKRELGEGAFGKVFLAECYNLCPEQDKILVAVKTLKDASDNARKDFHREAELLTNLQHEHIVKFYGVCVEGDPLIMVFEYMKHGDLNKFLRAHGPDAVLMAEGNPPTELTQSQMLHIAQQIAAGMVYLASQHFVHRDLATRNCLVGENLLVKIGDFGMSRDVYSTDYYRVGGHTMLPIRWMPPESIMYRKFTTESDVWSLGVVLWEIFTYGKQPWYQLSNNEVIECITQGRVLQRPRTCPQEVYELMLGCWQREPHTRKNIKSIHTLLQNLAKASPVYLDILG

T1 sequence (Q16620 32-822, species assumed): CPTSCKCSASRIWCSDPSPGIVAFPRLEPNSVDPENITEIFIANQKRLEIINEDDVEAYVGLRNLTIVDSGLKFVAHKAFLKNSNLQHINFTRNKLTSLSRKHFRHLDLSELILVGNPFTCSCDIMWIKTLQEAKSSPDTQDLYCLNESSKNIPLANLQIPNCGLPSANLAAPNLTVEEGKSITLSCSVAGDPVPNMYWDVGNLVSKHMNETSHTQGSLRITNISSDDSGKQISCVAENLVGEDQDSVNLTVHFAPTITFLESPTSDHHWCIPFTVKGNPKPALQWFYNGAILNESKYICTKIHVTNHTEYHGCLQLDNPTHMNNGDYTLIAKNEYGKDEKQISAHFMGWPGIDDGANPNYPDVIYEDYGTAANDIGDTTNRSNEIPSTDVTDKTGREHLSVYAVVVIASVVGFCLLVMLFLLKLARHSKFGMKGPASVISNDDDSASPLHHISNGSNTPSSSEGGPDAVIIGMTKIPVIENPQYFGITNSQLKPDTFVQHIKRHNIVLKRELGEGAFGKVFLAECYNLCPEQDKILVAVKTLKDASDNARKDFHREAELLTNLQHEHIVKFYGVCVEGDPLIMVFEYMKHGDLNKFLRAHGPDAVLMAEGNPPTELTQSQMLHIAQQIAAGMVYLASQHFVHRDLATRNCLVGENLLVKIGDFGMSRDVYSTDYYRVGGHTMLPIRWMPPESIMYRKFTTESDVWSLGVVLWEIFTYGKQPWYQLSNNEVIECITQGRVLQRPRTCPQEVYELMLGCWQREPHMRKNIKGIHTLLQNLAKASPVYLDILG

Molecule: O=c1cc(-c2ccccc2)oc2c(O)c(O)ccc12 [7,8-DHF, 7,8-dihydroxyflavone]
- Kd (TrkB [1]): ~320 nM
- oral bioavailability ([2]; po): orally bioavailable
- blood-brain barrier penetration [2]: able to penetrate the blood-brain barrier

Molecule: O=C(NCCO)c1cc(C(=O)NCCO)cc(C(=O)NCCO)c1 [LM22A-4]
- IC50 (TrkB [3]): 47 nM
- intrinsic activity (IA) (TrkB [4]; partial agonist of TrkB): about 85%
- EC50 (TrkB [4]; read-out: EC50 for TrkB activation): 0.2 to 0.5 nM

Molecule: C[C@@H]1CCc2ncc(F)cc2[C@H]2CCCN2c2ccn3ncc(c3n2)C(=O)N1 [Loxo-195, reference compound]
- effect on NTF3-induced TRK phosphorylation [5]: decreased
- inhibition of NTF3-induced proliferation (AML12 cells): significantly inhibited proliferation
- inhibition of NTF3-induced proliferation (HepG2 cells): significantly inhibited proliferation
- effect on NTF3-induced CCND1 abundance (CCND1): inhibited

Molecule: Nc1ccc(-c2ccc3ncc4ccc(=O)n(-c5cccc(C(F)(F)F)c5)c4c3c2)cn1 [Torin2, reference compound]
- effect on NTF3-induced CCND1 and PCNA (CCND1 and PCNA [6]): inhibited
- effect on NTF3-induced CCND1 and PCNA (CCND1 and PCNA [7]): inhibited
- effect on NTF3-induced P-S6RP and P-P70S6K (mTOR): inhibited
- effect on NTF3- or insulin-induced phosphorylation of p70S6 kinase and S6RP (mTORC1; HDO, co-incubation with Torin2 25 nM): decreased
- phosphorylated S6rp (Ser240/244) (mTORC1; HDOs cultured in glutamine free media, coincubation (FIG. 18G), Torin2 25 nM): decreased phosphorylated S6rp

Molecule: Nc1nc(O)c2ncn(COC(CO)CO)c2n1 [ganciclovir]
- depletion rate of proliferating HSCs (proliferating HSCs): approximately 65%

Molecule: recombinant neurotrophin-3 (NTF3) (from UniProt P20783 139-257) (ligand)
- proliferation of primary mouse hepatocytes (CellTiter-Glo), NTF3 20 ng/ml against vehicle [8]: 1.5 fold
